Measurements published in PubChem BioAssay AID2060600 (Molecular Pharmacology Branch, DTP, NCI, 2025).

Tested on: 996289-038-R-J1-PDC complex spheroid viability
Test: Anticancer human tumor 996289-038-R-J1-PDC patient-derived colon adenocarcinoma cell line growth inhibition [CLK]
Settings: for IC50: curve of first compound; for viability, T/C: stronger effect = lower value
Summary of the method: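 Multi-cell-type spheroids combined patient-derived tumor cells with HUVEC endothelial cells and human mesenchymal stem cells. Paired agents were dosed in half-log steps down from about clinical Cmax, or from 10 microM where Cmax was unknown.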

[1] = second compound 0.0316 µM, first compound 0.0316 µM
[2] = second compound 0.0316 µM, first compound 0.1 µM
[3] = second compound 0.0316 µM, first compound 0.316 µM
[4] = second compound 0.0316 µM, first compound 1 µM
[5] = second compound 0.0316 µM, first compound 3.16 µM
[6] = second compound 0.0316 µM, first compound 10 µM
[7] = second compound 0.1 µM, first compound 0.0316 µM
[8] = second compound 0.1 µM, first compound 0.1 µM
[9] = second compound 0.1 µM, first compound 0.316 µM
[10] = second compound 0.1 µM, first compound 1 µM
[11] = second compound 0.1 µM, first compound 3.16 µM
[12] = second compound 0.1 µM, first compound 10 µM
[13] = second compound 0.316 µM, first compound 0.0316 µM
[14] = second compound 0.316 µM, first compound 0.1 µM
[15] = second compound 0.316 µM, first compound 0.316 µM
[16] = second compound 0.316 µM, first compound 1 µM
[17] = second compound 0.316 µM, first compound 3.16 µM
[18] = second compound 0.316 µM, first compound 10 µM
[19] = second compound 1 µM, first compound 0.0316 µM
[20] = second compound 1 µM, first compound 0.1 µM
[21] = second compound 1 µM, first compound 0.316 µM
[22] = second compound 1 µM, first compound 1 µM
[23] = second compound 1 µM, first compound 3.16 µM
[24] = second compound 1 µM, first compound 10 µM
[25] = second compound 3.16 µM, first compound 0.0316 µM
[26] = second compound 3.16 µM, first compound 0.1 µM
[27] = second compound 3.16 µM, first compound 0.316 µM
[28] = second compound 3.16 µM, first compound 1 µM
[29] = second compound 3.16 µM, first compound 3.16 µM
[30] = second compound 3.16 µM, first compound 10 µM
[31] = second compound 10 µM, first compound 0.0316 µM
[32] = second compound 10 µM, first compound 0.1 µM
[33] = second compound 10 µM, first compound 0.316 µM
[34] = second compound 10 µM, first compound 1 µM
[35] = second compound 10 µM, first compound 3.16 µM
[36] = second compound 10 µM, first compound 10 µM
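Also: spheroids exposed to the agents for 7 days before readout.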

O=C(c1cc(Cc2n[nH]c(=O)c3ccccc23)ccc1F)N1CCN(C(=O)C2CC2)CC1 + CN1CCN(c2cc(C(=O)Nc3cc4cc(-c5cnn(C)c5)ccc4cn3)ccn2)CC1
IC50 (second compound 0.0316 µM): > 10 µM
IC50 (second compound 0.1 µM): > 10 µM
IC50 (second compound 0.316 µM): > 10 µM
IC50 (second compound 1 µM): < 0.0316 µM
IC50 (second compound 3.16 µM): < 0.0316 µM
IC50 (second compound 10 µM): < 0.0316 µM
viability, T/C [1]: 92.9%
viability, T/C [2]: 109%
viability, T/C [3]: 91.9%
viability, T/C [4]: 110%
viability, T/C [5]: 104%
viability, T/C [6]: 100%
viability, T/C [7]: 84.9%
viability, T/C [8]: 97.3%
viability, T/C [9]: 84.6%
viability, T/C [10]: 89.2%
viability, T/C [11]: 92.7%
viability, T/C [12]: 87.8%
viability, T/C [13]: 57.9%
viability, T/C [14]: 65.9%
viability, T/C [15]: 73.4%
viability, T/C [16]: 58.4%
viability, T/C [17]: 67.9%
viability, T/C [18]: 60.4%
viability, T/C [19]: 3.61%
viability, T/C [20]: 4.51%
viability, T/C [21]: 5.54%
viability, T/C [22]: 3.94%
viability, T/C [23]: 3.05%
viability, T/C [24]: 5.36%
viability, T/C [25]: 1.23%
viability, T/C [26]: 1.19%
viability, T/C [27]: 2.64%
viability, T/C [28]: 1%
viability, T/C [29]: 0.92%
viability, T/C [30]: 1.35%
viability, T/C [31]: 0.69%
viability, T/C [32]: 1.28%
viability, T/C [33]: 0.88%
viability, T/C [34]: 2.07%
viability, T/C [35]: 0.54%
viability, T/C [36]: 2.19%

O=c1[nH]cc(F)c(=O)[nH]1 + CN1CCN(c2cc(C(=O)Nc3cc4cc(-c5cnn(C)c5)ccc4cn3)ccn2)CC1
IC50 (second compound 0.0316 µM): > 10 µM
IC50 (second compound 0.1 µM): > 10 µM
IC50 (second compound 0.316 µM): 4.88 µM
IC50 (second compound 1 µM): < 0.0316 µM
IC50 (second compound 3.16 µM): < 0.0316 µM
IC50 (second compound 10 µM): < 0.0316 µM
viability, T/C [1]: 100%
viability, T/C [2]: 91.3%
viability, T/C [3]: 76.4%
viability, T/C [4]: 74.4%
viability, T/C [5]: 74.2%
viability, T/C [6]: 71%
viability, T/C [7]: 101%
viability, T/C [8]: 94.4%
viability, T/C [9]: 74.2%
viability, T/C [10]: 65.5%
viability, T/C [11]: 60.8%
viability, T/C [12]: 58.4%
viability, T/C [13]: 77.1%
viability, T/C [14]: 68.1%
viability, T/C [15]: 56.8%
viability, T/C [16]: 56.7%
viability, T/C [17]: 51.7%
viability, T/C [18]: 47.3%
viability, T/C [19]: 4.52%
viability, T/C [20]: 5.71%
viability, T/C [21]: 5.87%
viability, T/C [22]: 6.18%
viability, T/C [23]: 6.47%
viability, T/C [24]: 7.26%
viability, T/C [25]: 1.22%
viability, T/C [26]: 0.94%
viability, T/C [27]: 0.86%
viability, T/C [28]: 1.6%
viability, T/C [29]: 0.83%
viability, T/C [30]: 0.72%
viability, T/C [31]: 0.56%
viability, T/C [32]: 0.79%
viability, T/C [33]: 0.98%
viability, T/C [34]: 1.55%
viability, T/C [35]: 0.45%
viability, T/C [36]: 0.41%
